What all share (assay type): cell-based
Test [1] relates to Hodgkin's lymphoma cells (L540cy). Kind of test: In vitro potency (CellTiter-Glo, 96 h) on L540cy. Particulars: L540cy, 96 h, read-out: L540cy IC50. The method, then:
(§1) In vitro potency was assessed on multiple cancer cell lines. All cell lines were authenticated by STR profiling at IDEXX Bioresearch and cultured for no more than 2 months after resuscitation. Cells cultured in log-phase growth were seeded for 24 hours in 96-well plates containing […] RPMI 1640 supplemented with 20% FBS. Serial dilutions of antibody-drug conjugates in cell culture media were prepared at 4x working concentrations, and 50 μL of each dilution was added to the 96-well plates. Following addition of test articles, cells were incubated with test articles for 4 days at […]. After 96 hours, growth inhibition was assessed by CellTiterGlo® (Promega, Madison, WI) and luminescence was measured on a plate reader.
(§2) Cell viability was determined by CellTiter-Glo staining after 96h exposure to ADC. ND=Not Determined. In the following tables, “Ex_” refers to a drug linker number. For example, “Ag4-Ex_4a” refers to a conjugate of an Ag4 antibody with drug linker 4a.
In general terms: In ATP-based viability assays light output follows the ATP content of the culture.

Another test relates to melanoma cells (A2058). As to the kind of experiment: In vitro potency (CellTiter-Glo, 96 h) on A2058. Particulars: Homo sapiens, A2058, 96 h, CPT free drugs; CellTiter-Glo after 96 h exposure; read-out: A2058 IC50. As for the experimental part: as §1, §2
In test [2] the test system is pancreatic cancer cells (BxPC3). Kind of test: In vitro potency (CellTiter-Glo, 96 h) on BxPC3. Particulars: Homo sapiens, BXPC-3, 96 h, read-out: BxPC3 IC50. The method, then:
as §1, §2

For test [3], the system named is breast cancer cells (MDA-MB-231). Kind of test: In vitro potency (CellTiter-Glo, 96 h) on MDA-MB-231. Particulars: Homo sapiens, MDA-MB-231, 96 h, read-out: MDAMB 231 IC50. As for the experimental part:
as §1, §2

In test [4] the test system is B-lymphocyte cancer cells (SU-DHL4). Kind of test: In vitro potency (CellTiter-Glo, 96 h) on SU-DHL4. The settings on record: Homo sapiens, SU-DHL-4, 96 h, read-out: SU-DHL-4 IC50. The method, then:
as §1, §2

Test [5] has as its system anaplastic large cell lymphoma cells (DELBVR). As to the kind of experiment: In vitro potency (CellTiter-Glo, 96 h) on DELBVR. The settings on record: 96 h, read-out: DELBVR IC50. The method, then:
as §1, §2

Test [6] concerns acute myeloid leukemia cells (MOLM-13). Kind of test: In vitro potency (CellTiter-Glo, 96 h) on MOLM-13. The settings on record: Homo sapiens, MOLM-13, 96 h, read-out: MOLM-13 IC50. As for the experimental part: as §1, §2
Test [7] concerns anaplastic large cell lymphoma cells (DEL). Kind of test: In vitro potency (CellTiter-Glo, 96 h) on DEL. Particulars: 96 h, read-out: DEL IC50. The method, then:
as §1, §2

Test [8] concerns renal carcinoma cells (786-O). Kind of test: In vitro potency (CellTiter-Glo, 96 h) on 786-O. The settings on record: Homo sapiens, 786-0, 96 h, read-out: 786-O IC50. The method, then: as §1, §2
A short description of test [9]: In vitro potency (CellTiter-Glo, 96 h) on Ls174T. The settings on record: Homo sapiens, LS174T, read-out: Ls174T IC50. The method, then:
as §1, §2

Test [10] concerns anaplastic large cell lymphoma cells (Karpas299). As to the kind of experiment: In vitro potency (CellTiter-Glo, 96 h) on Karpas299. Particulars: Homo sapiens, KARPAS-299, 96 h, read-out: Karpas299 IC50. The method, then: as §1, §2
Test [11] deals with non-small-cell lung cancer cells (Calu1). Kind of test: In vitro potency (CellTiter-Glo, 96 h) on Calu1. The settings on record: Homo sapiens, Calu-1, 96 h, read-out: Calu1 IC50. As for the experimental part:
as §1, §2

[12] abbreviates: CPT free drugs, CellTiter-Glo after 96 h exposure.

The text below walks through data of US20230381321A1, “CAMPTOTHECIN CONJUGATES” (priority 2022, published 2023).

Where two headings read alike, the source gives them in different places.

As usually defined, the IC50 is the concentration at which inhibition is half-maximal. In the case of `CC[C@@]1(O)C(=O)OCc2c1cc1n(c2=O)Cc2c-1nc1cc(F)c(SC)cc1c2CN` [Compound 2at], the IC50 in [1] (setting [12]) stood at 4 nM; in the test with melanoma cells (A2058) it was 20 nM; in test [2] (setting [12]) it was 84 nM; in test [3] (setting [12]) it was 21 nM; in [4] (setting [12]), 23 nM; in test [5] (setting [12]) it was 8 nM. The IC50 in test [6] (setting [12]) was 264 nM; in test [7] (setting [12]) it was 11 nM; in [8] (setting [12]), 50 nM; in [9] (setting [12]), 30 nM; in test [10] (setting [12]) it was 38 nM.
As to `CC[C@@]1(O)C(=O)OCc2c1cc1n(c2=O)Cc2c-1nc1cc(F)c(C)c(-c3ccc(CO)s3)c1c2CN` [Compound 6e], the IC50 in test [11] amounted to 155 nM.
As to `CC[C@@]1(O)C(=O)OCc2c1cc1n(c2=O)Cc2c-1nc1cc3c(cc1c2CN(C)CCCN)OCO3` [Compound 8, (5S)-14-[[3-aminopropyl(methyl)amino]methyl]-5-ethyl-5-hydroxy-7,18,20-trioxa-11,24-diazahexacyclo[11.11.0.02,11.04,9.015,23.017,21]tetracosa-1(13),2,4(9),14,16,21,23-heptaene-6,10-dione;2,2,2-trifluoroacetic acid], the IC50 is 44 nM in test [1] (setting [12]); 52 nM in test [2] (setting [12]); 125 nM in test [3] (setting [12]); 15 nM in test [4] (setting [12]); 16 nM in test [5] (setting [12]); 47 nM in test [6] (setting [12]). Besides, the IC50 in test [7] (setting [12]) turned out to be 8 nM; in test [8] (setting [12]) it was 113 nM; in test [9] (setting [12]), 131 nM; in test [10] (setting [12]) it was 54 nM.
For the molecule `CC[C@@]1(O)C(=O)OCc2c1cc1n(c2=O)Cc2c-1nc1cc3c(cc1c2CNCCCNC)OCO3` [Compound 8a], the IC50 in test [1] came out at 5 nM; in test [2], 15 nM; in test [3], 22 nM; in test [4] it was 4 nM; in test [5] it was 2 nM; in test [6] it was 3 nM. For the same molecule, the IC50 in [7] worked out at 1 nM; in test [8] it was 11 nM; in [9] (96 h), 48 nM; in [10], 8 nM.
Turning to `CC[C@@]1(O)C(=O)OCc2c1cc1n(c2=O)Cc2c-1nc1cc3c(cc1c2CNCCN1CCNCC1)OCO3` [Compound 8b], the IC50 in test [1] worked out at 56 nM; in test [2], 51 nM; in [3], 260 nM; in test [4] it was 17 nM; in test [5], 13 nM; in test [6], 91 nM. Further, the IC50 in [7] was 8 nM; in [8], 102 nM; in test [9] (96 h), 111 nM; in test [10], 62 nM.
Consider `CC[C@@]1(O)C(=O)OCc2c1cc1n(c2=O)Cc2c-1nc1cc3c(cc1c2CN1CCN(CCN)CC1)OCO3` [Compound 8c], for which the IC50 in test [1] came to 14 nM; in test [2], 14 nM; in [3] it was 57 nM; in test [4] it was 7 nM; in test [5], 4 nM; in [6], 69 nM. Also, the IC50 in [7] amounted to 3 nM; in [8], 27 nM; in [9] (96 h), 32 nM; in [10] it was 28 nM.
On to `CC[C@@]1(O)C(=O)OCc2c1cc1n(c2=O)Cc2c-1nc1cc3c(cc1c2CNCCCN1CCNCC1)OCO3` [Compound 8d], for which the 50% inhibitory concentration (IC50) in [1] amounted to 6 nM; in test [2], 14 nM; in test [3] it was 25 nM; in test [4] it was 6 nM; in test [5] it was 2 nM; in test [6], 37 nM. Moreover, the IC50 was determined as 2 nM in [7], 15 nM in test [8], 19 nM in [9] (96 h) and 9 nM in test [10].
With `CC[C@@]1(O)C(=O)OCc2c1cc1n(c2=O)Cc2c-1nc1cc3c(cc1c2CNC1CCNCC1)OCO3` [Compound 8e], the 50% inhibitory concentration (IC50) in [1] is 36 nM; in [2], 62 nM; in test [3] it was 102 nM; in test [4] it was 25 nM; in test [5] it was 10 nM; in test [6], 89 nM. Also, the IC50 in [7] was 7 nM; in test [8], 104 nM; in test [9] (96 h) it was 109 nM; in test [10], 72 nM.
As to `CC[C@@]1(O)C(=O)OCc2c1cc1n(c2=O)Cc2c-1nc1cc3c(cc1c2CN1CCC(N)CC1)OCO3` [Compound 8f], the half-maximal inhibitory concentration (IC50) was determined as 84 nM in test [1]; 166 nM in test [2]; 207 nM in test [3]; 32 nM in test [4]; 30 nM in [5]; 32 nM in test [6]. Moreover, the IC50 stood at 14 nM in [7], 267 nM in test [8], 236 nM in [9] (96 h) and 110 nM in [10].
In the case of `CC[C@@]1(O)C(=O)OCc2c1cc1n(c2=O)Cc2c-1nc1cc3c(cc1c2CNC(C)=O)CCO3` [Compound 12], the IC50 in [1] came to 5 nM; in [2], 12 nM; in [3] it was 27 nM; in test [4] it was 1 nM; in [5], 1 nM; in test [6] it was 5 nM. For the same molecule, the IC50 in test [7] was determined as 1 nM; in test [8], 13 nM; in test [9] (96 h) it was 19 nM; in test [10], 24 nM.
With `CC[C@@]1(O)C(=O)OCc2c1cc1n(c2=O)Cc2c-1nc1cc(F)c(C)c(Cl)c1c2CNC(C)=O` [Compound 12a], the IC50 is 0.4 nM in test [1]; 2 nM in test [2]; 2 nM in test [3]; 0.4 nM in test [4]; 0.2 nM in test [5]; 1 nM in [6]. Besides, the IC50 stood at 0.2 nM in test [7], 1 nM in [8], 7 nM in test [9] (96 h) and 1 nM in [10].
On to `CC[C@@]1(O)C(=O)OCc2c1cc1n(c2=O)Cc2c-1nc1cc3c(cc1c2CNC(=O)CN)CCO3` [Compound 13], for which the IC50 in test [1] was determined as 45 nM; in test [2], 94 nM; in test [3], 177 nM; in test [4], 18 nM; in test [5], 21 nM; in test [6], 88 nM. Besides, the IC50 stood at 8 nM in test [7], 139 nM in test [8], 195 nM in test [9] (96 h) and 126 nM in [10].
Take `CC[C@@]1(O)C(=O)OCc2c1cc1n(c2=O)Cc2c-1nc1cc(F)c(C)c(Cl)c1c2CNC(=O)CN` [Compound 13a]: the IC50 in test [1] was found to be 1 nM; in [2], 5 nM; in test [3], 5 nM; in test [4], 1 nM; in [5], 1 nM; in [6] it was 2 nM. For the same molecule, the IC50 in test [7] was 0.3 nM; in test [8] it was 6 nM; in [9] (96 h), 44 nM; in [10] it was 1 nM.
`CC[C@@]1(O)C(=O)OCc2c1cc1n(c2=O)Cc2c-1nc1cc(F)c(C)c3c1c2[C@@H](NC(=O)CN)CC3` [Compound 13b]: the IC50 in [1] (setting [12]) was found to be 6 nM; in test [2] (setting [12]) it was 21 nM; in test [3] (setting [12]), 30 nM; in test [4] (setting [12]) it was 2 nM; in test [5] (setting [12]), 4 nM; in test [6] (setting [12]) it was 23 nM. For the same molecule, the IC50 in [7] (setting [12]) was determined as 1 nM; in test [8] (setting [12]) it was 27 nM; in [9] (setting [12]) it was 58 nM; in test [10] (setting [12]), 11 nM.
